According to patent US11213506B2, “Combination therapy for the treatment or prevention of tumours” (QBIOTICS PTY LTD, priority 2017, dated 2022):

Assays:
[1] = test system: CD11c+ BMDCs with B16-OVA cells; assay: BMDC uptake of epoxytigliane treated B16-OVA cells; type: cell-based, C57Bl/6 mice
Protocol: The tibias and […] from four 7-8 week old C57Bl/6 mice were first surgically removed under sterile conditions. The marrow was flushed from the bone cavity with 10 ml of ice cold R10 media (using a 27G needle/syringe into a 50 ml polypropylene tube). Cells were pelleted at 1,500 rpm for 5 mins and washed ×2 with ice cold R10 media. After resuspension of the pellet into 10 ml of ice cold R10 medium, cells were counted using an improved haemocytometer and plated at a density of 2×10^6 cells per plate (petri dish) in 10 ml of R10 supplemented with 20 ng/ml murine GM-CSF. All plates were incubated at 37° C., 5% CO2 and at day 3 an additional 10 ml R10 with 20 ng/ml GM-CSF was added. Cells were again fed at day 6 and used for downstream assays on day 7.
Prior to co-incubation with BMDCs, B16-OVA cells were trypsinised, centrifuged at 1,200 rpm for 4 mins to pellet cells and washed ×2 with complete medium. Cells were then stained with 2 μM Cell Tracker Green in complete medium for 45 mins, after which they were pelleted and washed ×2 as above. Labelled B16-OVA cells were subsequently treated with Compounds 1, 2, 3 and 4 at two concentrations (500 or 300 μM) in media at a density of 1×10^6 cells/ml for 30 and 60 mins, after which cells were pelleted via centrifugation, supernatant removed via aspiration and the cell pellet washed ×1 with complete media. After the wash, the treated cells were resuspended in R10 media, inserted into the wells of a 6-well plate (Corning, #3471. Ultra low attachment surface) and BMDCs added. Co-cultures were incubated for 4 h after which cell suspensions were transferred to a microfuge tube and centrifuged at 1,500 rpm for 5 mins. Pellets were resuspended in 100 μl FACs buffer containing anti-CD11c-APC and incubated for 10 mins at 4° C. Cells were again pelleted, washed ×1 with FACs buffer and then fixed using PBS, 1% formaldehyde for 10 mins. After centrifugation and removal of the supernatant, cells were resuspended in 500 μl FACs buffer in preparation for flow cytometry.
Samples were first gated by FSC-H v FSC-A, then SSC-H v SS-A to identify single cells. The proportion of CD11c^+ cells (Ex: 640 nm, Em: 670/14) with CMFDAmid (Ex: 488 nm, Em: 530/30) were then determined for treated and untreated cells as a percentage of all CD11c^+ cells.

[2] = test system: B16-OVA cells; assay: HMGB1 release assay (ELISA); type: cell-based, mouse; conditions: 120 minutes
Protocol: (§1) A431 (human epidermoid carcinoma), MM649 (human melanoma) and B16-OVA (B16-F10 mouse melanoma cell line stably transfected with chicken ovalbumin) were cultured in RPMI-1640, 10% FCS (complete medium) at 37° C., 5% CO2 in a humidified incubator. BMDCs were cultured in R10 media (RPMI, 10% FCS, 2 mM glutamine, 50 μM beta-mercaptoethanol, Pen/Strep). All cell lines used in this study were confirmed as mycoplasma negative using MycoAlert (Lonza). STR profiling was also performed to confirm the identity of the human cell lines used.
Cell lines (A431, MM649 and B16-OVA) were plated into T75 cm^2 flasks (Nunc) in 10 ml of complete media and cultured at 37° C., 5% CO2 until they reached 90% confluency. Compounds 1, 2, 3 and 4 were diluted in 5 ml of identical media to a final concentration of 500 and 300 μM and then administered to the cells. Several flasks were prepared such that a kinetic curve of HMGB1 release in response to drug treatment could be established. Ethanol only controls were also generated. At the required timepoint, media was removed from the flask into a 10 ml polypropylene tube that was placed on ice for 5 mins. […] OD450 nm values were determined using a Hybrid Synergy H4 plate reader (BioTek). Absorbance values from drug treated samples were normalized to vehicle treated samples to determine the fold increase in HMGB1 release in response to epoxytigliane treatment.

[3] = test system: MM649 cells; assay: ATP release assay; type: cell-based, human; conditions: both concentrations (500 and 300 μM), within 60 minutes
Protocol: as §1
(§2) Cell lines were plated at a density of 10,000 cells per well into clear 96-well plates (Corning, #3595; 100 μl of complete media) and the resultant plates incubated overnight as previously detailed. The following day, media was aspirated from each well and 50 μl of fresh medium was inserted. Stock solutions of Compounds 1, 2, 3 and 4 were diluted to 2× final assay concentration (1 mM and 600 μM) and 50 μl of these dilutions added to the required wells. Ethanol only control solutions were also compiled and administered. At the indicated timepoints, 80 μl of media was removed, centrifuged at 1,200 rpm for 4 mins to pellet cell debris and 50 μl assayed for ATP using a bioluminescence based ATP assay kit (FLAA, Sigma-Aldrich). Relative luminescence units were recorded for each sample using a Hybrid Synergy H4 plate reader (BioTek).

[4] = test system: A431 cells; assay: ATP release assay; type: cell-based, human; conditions: both concentrations (500 and 300 μM), within 60 minutes
Protocol: as §1, §2

[5] = test system: MM649 cells; assay: Intracellular ATP assay (CellTiter-Glo 2.0); type: cell-based, human
Protocol: (§3) CellTiter-Glo® 2.0 assay kits (Promega Corporation), a luminescence based assay quantitating the amount of ATP present in cells, were used to determine intracellular ATP levels in cultures of A431 and MM649 exposed to two concentrations (300 μM and 500 μM) of Compound 1. Again, cells were plated at a density of 10,000 cells per well into a clear bottomed black 96-well plates (in 100 μl of complete medium) and incubated at 37° C., 5% CO2 overnight. At the time of assay, media was aspirated from each well and 50 μl of fresh medium was inserted. Stock solutions of Compound 1 were diluted to 2× final assay concentrations (1 mM and 600 μM) and 50 μl of these dilutions added to the required wells. Ethanol only control solutions were also compiled and administered. At the indicated time points, media was gently removed making sure not to disturb the cells and 100 μl of CellTiter-Glo® 2.0 Reagent added. The resultant plate was mixed on an orbital shaker for 2 mins to induce cell lysis after which it was incubated in the dark for 10 mins. Following this, the luminescent signal in each well was determined. Luminescent signals from compound treated wells were normalised to Vehicle treated wells and expressed as % intracellular ATP vs. time.

[6] = test system: A431 cells; assay: Intracellular ATP assay (CellTiter-Glo 2.0); type: cell-based, human
Protocol: as §3

[7] = test system: B16-OVA cells; assay: ATP release assay; type: cell-based, mouse; conditions: both concentrations (500 and 300 μM), within 60 minutes
Protocol: as §1, §2

## C/C=C(\C)C(=O)O[C@@H]1[C@@H](C)[C@@]2(O)[C@H]([C@@H]3C(C)(C)[C@]13OC(=O)[C@@H](C)CC)[C@@H]1O[C@]1(CO)[C@@H](O)[C@]1(O)C(=O)C(C)=C[C@H]12 [Compound 1, 12-tigloyl-13-(2-methylbutanoyl)-6,7-epoxy-4,5,9,12,13,20-hexahydroxy-1-tiglien-3-one]
[1]; 500 μM compared to the use of 300 μM
  dependence of antigen uptake on concentration and treatment time: antigen uptake occurs to a greater extent after a shorter treatment time
[1]; B16-OVA treated at 500 or 300 μM for 30 and 60 mins, 4 h co-culture
  uptake of dying cancer cell fragments by CD11c+ dendritic cells/macrophages (BMDCs): promotes the uptake
[2]
  fold increase in HMBG1 release, normalised to vehicle treated cells: greater than 3 fold
[3]
  ATP release: significant release of ATP
[4]
  ATP release: significant release of ATP
[5]; 300 μM, after 120 minutes
  intracellular ATP: approximately 50 % of the pre-treatment level
[5]; 500 μM, after 60 minutes
  intracellular ATP levels: almost undetectable
[6]; 300 μM, after 120 minutes
  intracellular ATP: approximately 50 % of the pre-treatment level
[6]; 500 μM, after 60 minutes
  intracellular ATP levels: almost undetectable
[7]
  ATP release: significant release of ATP
